Experimental findings from patent publication US20240374763A1, “DIAGNOSIS AND MONITORING USING EXTRADOMAIN-B FIBRONECTIN TARGETED PROBES” (Case Western Reserve University, priority 2020, published 2024) are described below.

What all share (assay type): in vivo, mice
The subject of one assay is RKO tumors. Put plainly: MRMI of EDB-FN with MT218, RKO xenografts. The conditions noted are these: 40 μmol/kg MT218, 25 min post-injection. Here is the method:
(§1) Nude athymic mice (6-week-old nu/nu females) were purchased from The Jackson Laboratory (Bar Harbor, […]) and housed in the Animal Facility at CWRU. All the animal experiments were performed according to the protocol approved by the IACUC of CWRU. For assessment of drug resistance, 2 drug-resistant and 2 non-drug-resistant models were set up. About 3-4×10^6 DLD-1, RKO, DLD1-DR, and RKO-DR cells suspended in Matrigel-PBS mixture (1:1) were subcutaneously injected in the left flanks of nude mice (100 μL per mouse, 5 mice per group×4 models=20 mice). After 9 days when the tumors reached 100-200 mm3, MRMI was performed on the 4 xenograft models with 40 μmol/kg dose of MT218. The animals were then euthanized, and the tumors were harvested for post-mortem histology and IHC.
MT218 was synthesized as previously described. Ayat, N. R., et al., ACS Med Chem Lett, 2018. 9(7): p. 730-735. Briefly, click reaction between alkynyl-ZD2 and N3-Gd(HP-DO3A) was performed in the presence of CuSO4 and ascorbate at room temperature, followed by FLASH chromatography purification and validation of MT218 by MALDI-TOF mass spectrometry (m.w. 1443). […] Contrast-to-noise ratios (CNRs) were calculated as (mean tumor intensity—mean muscle intensity)/standard deviation of noise. […]

The subject of assay [1] is PANC-1-GFP-Luc intrapancreatic tumor xenografts. Put plainly: MRMI of PANC-1-GFP-Luc intrapancreatic tumor xenografts. Here is the method:
For flank xenograft models, 4×10^6 Capan-1 cells suspended in 100 μL of a 6 mg/mL Matrigel (Corning, Corning, NY) solution was injected subcutaneously into the flank of eight-week-old female nu/nu mice. The tumor bearing mice were imaged after tumor volumes exceeded 300 mm^3. For orthotopic intrapancreatic models, the pancreas of four-week-old female nu/nu mice were surgically exposed and 1×10^6 BxPC3-GFP-Luc or PANC-1-GFP-Luc cells suspended in 100 μL of an Matrigel solution (6 mg/mL) was injected into the pancreatic tissue. Prior to imaging, growth of tumor was verified by bioluminescence imaging with intraperitoneal injection of d-luciferin on IVIS Spectrum system (Perkin Elmer, Waltham, MA).
Mice bearing intrapancreatic tumors were anesthetized and a tail vein catheter was inserted. Image acquisition was performed on a MR Solutions 3T MRS 3000 scanner with a mouse radiofrequency coil. Axial images were obtained using a Fast Spin Echo (FSE) MRI sequence (305 ms TR, 11 ms TE, 90° F.A, 4 cm×4 cm FOV, 1 mm slice thickness, 10 slices, echo train length=4, echo spacing=11 ms, 4 averages, 256×256 matrix, […] cm/pixel resolution) with respiratory gating. Images were acquired before contrast and at different time points after contrast injection at a dose of 0.1 mmol/kg (100 μL). For competitive binding experiments, a 5:1 molar ratio of free ZD2 peptide to MT218 was injected in mice bearing intrapancreatic BxPC3 tumor xenografts (n=3) at a dose of 0.1 mmol MT218/kg (100 μL). Images obtained on the MR Solutions 3T scanner were normalized using the Surscalereader.exe (MR Solutions, Guildford, UK) program supplied.
Image files were exported and analyzed in Horus software. ROIs were drawn in the tumor, liver, kidney, and muscle. […] The contrast-to-noise ratio of the tumor (CNR) was calculated using the following equation, where σ_noise is the standard deviation of intensities from an ROI drawn outside of the mouse body: […]

For a further assay, the system named is C4-2-DR tumors. Description: MRMI with MT218, C4-2-DR xenografts. The conditions noted are these: 0.04 mmol Gd/kg, 20 min post-injection. From the text:
Xenograft models were established by subcutaneous flank injections in athymic nu/nu mice for the 4 prostate cancer cells and tested with MRMI using 0.04 mmol Gd/kg of MT218.

The next assay relates to DLD1-DR tumors. Put plainly: MRMI of EDB-FN with MT218, DLD1-DR xenografts. As for the experimental part:
as §1
MT218 was synthesized as previously described. Ayat, N. R., et al., ACS Med Chem Lett, 2018. 9(7): p. 730-735. Briefly, click reaction between alkynyl-ZD2 and N3-Gd(HP-DO3A) was performed in the presence of CuSO4 and ascorbate at room temperature, followed by FLASH chromatography purification and validation of MT218 by MALDI-TOF mass spectrometry (m.w. 1443). For assessment of drug resistance and therapeutic monitoring, MRMI was performed in a 3T MRS 3000 scanner (MR Solutions, Surrey, UK) with a mouse short quad coil. The mice were anesthetized with isofluorane and tail vein catheter was setup. T1-weighted MR images were obtained before (pre-contrast) and 25 min after injection (post-contrast) of 40 μmol/kg dose of MT218 [ZD2-N3—Gd(HP-DO3A)]. The following two sequences were used with respiratory gating: axial fast spin echo (FSE) (TR=305 ms, TE=11 ms, FA=90°, FOV=40 mm×40 mm, slice thickness=1 mm, slice number=15, Nav=2, matrix=256×256) and coronal FSE (TR=305 ms, TE=11 ms, FA=90°, FOV=90 mm×90 mm, slice thickness=1 mm, slice number=20, Nav=1, matrix=248×512). […] Contrast-to-noise ratios (CNRs) were calculated as (mean tumor intensity—mean muscle intensity)/standard deviation of noise. […]

Setting [2] is: DLD1-DR over DLD-1 tumors, 40 μmol/kg MT218.

No end group written: not given here.

“ZD2-N3-Gd(HP-DO3A) (TVRTSAD; also: conjugated to Gd(HP-DO3A) by click reaction of alkynyl-ZD2 with N3-Gd(HP-DO3A), residue of attachment not given here, Gd complex) [MT218, EDB-FN-targeted MRI contrast agent; ZD2 peptide conjugated to the clinical macrocyclic agent Gd(HP-DO3A)]”: the “increase in CNRs over the pre-contrast” value with RKO tumors stood at 1.4 fold. The “intratumoral CNR increase” value in assay [1] (0.1 mmol/kg, 10 min postinjection) is “approximately 3.85 fold”. Moreover, the “CNR compared to the clinical agent Gd(HP-DO3A)” value in assay [1] (PANC-1-GFP-Luc intrapancreatic) is on record as 164 % CNR of control. In addition, the “increase of CNR” value in the assay on C4-2-DR tumors was 6 fold. Moreover, in the assay on DLD1-DR tumors (setting [2]), the “higher CNRs over the non-resistant tumors” value is given as 2.2 fold and the “increase in CNR over the non-resistant tumors” value is reported as 120%. Further, the “higher CNRs over pre-contrast” value in the assay on DLD1-DR tumors (DLD1-DR tumors, 40 μmol/kg MT218, 25 min post-injection) came out at 3.3 fold.
